Data on 19 molecules can be found in patent US7265099B1, “Use of chemical chelators as reversal agents for drug-induced neuromuscular block” (Organon N.V., priority 1999, dated 2007).

Assay [1] relates to steady-state neuromuscular block induced by rocuronium bromide (Roc). Kind of assay: Reversal of neuromuscular blockade in vivo, anaesthetized guinea pig, rocuronium. The procedure: (§1) Male Dunkin-Hartley guinea pigs (bodyweight: 600–900 g) were anaesthetized by i.p. administration of 10 mg/kg pentobarbitone and 1000 mg/kg urethane. After tracheotomy, the animals were artificially ventilated using a Harvard small animal ventilator. A catheter was placed into the carotid artery for continuous monitoring of arterial blood pressure and the taking of blood samples for blood gas analysis. Heart rate was derived from the blood pressure signal. The sciatic nerve was stimulated (rectangular pulses of 0.5 ms duration at 10 s (0.1 Hz) intervals at a supramaximal voltage, using a Grass S88 Stimulator) and the force of M. gastrocnemius contractions was measured using a Grass FT03 force-displacement transducer. Contractions, blood pressure and heart rate were recorded on a multichannel Grass 7D recorder. Catheters were placed in both jugular veins. One catheter was used for the continuous infusion of a neuromuscular blocking agent. The infusion rate of the neuromuscular blocking agent was increased until a steady-state block of 85–90% was obtained. The other catheter was used for administration of increasing doses of the reversal agent. During continuous infusion of the neuromuscular blocking agent, single doses of increasing concentration of reversal agent were given. At the end of the experiment, the measured force of muscle contractions was plotted against the concentration of reversal agent, and using regression analysis techniques, the 50% reversal concentration was calculated.
Reversal of neuromuscular block in vivo, induced by rocuronium bromide, was carried out as described in Example 5.

The test system of assay [2] is steady-state neuromuscular block induced by vecuronium bromide (Vec). Kind of assay: Reversal of neuromuscular blockade in vivo, anaesthetized guinea pig, vecuronium. The following applies: Vec infusion, 85–90% block, anaesthetized guinea pigs, i.v. reversal agent; mean. The procedure: as §1
In assay [3] the test system is neuromuscular block induced by rocuronium in isolated mouse hemidiaphragm. Put plainly: Reversal of neuromuscular block in vitro: isolated mouse hemidiaphragm preparation. The following applies: for maximum reversal / pEC50: rocuronium bromide 3.6 μM in the bath, 95% block; for maximum reversal / pEC50 / concentration of chemical chelator at maximum reversal: mouse hemidiaphragm; for pEC50: read-out: 50% reversal concentration; for Mouse hemidiaphragm: maximum reversal (%) / concentration of chemical chelator at maximum reversal: 3.1 μM rocuronium; for Reversal of the neuromuscular blocking action of rocuronium (in words): rocuronium-induced block. As for the experimental part: Hemidiaphragms, with phrenic nerves attached, were removed from euthanized male mice (Institute of Cancer Research; bodyweight: 20–60 g). The preparations were mounted on a tissue holder and placed in a tissue bath filled with a modified Krebs-Henseleit solution (composition: 118 mM NaCl, 30 mM NaHCO3, 5 mM KCl, 1 mM KH2PO4, 1 mM MgSO4, 30 mM glucose and 2.5 mM CaCl2) at 37° C. and bubbled with 95% oxygen and 5% carbondioxide. One end of the preparation was connected with a siliconized silk suture to a Grass FT03 force-displacement transducer. An initial force of 10 mN was applied. The phrenic nerve was placed on a bipolar platinum electrode and was stimulated with rectangular pulses of 0.2 ms duration at 20 s (0.05 Hz) intervals at a supramaximal voltage, using a Grass S88 Stimulator. Contractions were recorded on a four channel Grass 79D recorder.
Increasing amounts of reversal agent were then administered into the bath at intervals of 10 min. The % maximum reversal was established. At the end of the experiment, the measured muscle contractions force was plotted against the concentration of reversal agent, and using regression analysis techniques, the 50% reversal concentration was calculated.
After induction of neuromuscular block by rocuronium, the % maximum reversal produced by the addition of a number of γ-cyclodextrin derivatives (compounds 11–16), a cyclic octasaccharide comprising 4 rhamnosyl-mannopyranosyl units (compound 24), or a number of paracyclophane derivatives (compounds 17–21 and 23) are presented in Table II.
Reversal of neuromuscular block in vitro was carried out using the mouse hemidiaphragm preparation as described in Example 6.

The subject of assay [4] is steady-state neuromuscular block induced by pancuronium bromide (Pan). Put plainly: Reversal of neuromuscular blockade in vivo, anaesthetized guinea pig, pancuronium. Particulars: Pan infusion, 85–90% block, anaesthetized guinea pigs, i.v. reversal agent; mean. As for the experimental part: as §1
In assay [5] the test system is steady-state neuromuscular block induced by suxamethonium chloride (Sux; succinylcholine). Kind of assay: Reversal of neuromuscular blockade in vivo, anaesthetized guinea pig, suxamethonium. The following applies: Sux infusion, 85–90% block, anaesthetized guinea pigs, i.v. reversal agent; mean. As for the experimental part: as §1
Assay [6] concerns steady-state neuromuscular block induced by rapacuronium bromide (Rap; Org 9487). Kind of assay: Reversal of neuromuscular blockade in vivo, anaesthetized guinea pig, rapacuronium. The following applies: Rap infusion, 85–90% block, anaesthetized guinea pigs, i.v. reversal agent; mean. As for the experimental part: as §1
Where [7] appears, read: Roc infusion, 85–90% block, anaesthetized guinea pigs, i.v. reversal agent, mean.
[8] abbreviates: rocuronium bromide, anaesthetised guinea pig, as in Example 5.

pEC50: −log10 of the molar value.

On to “2-hydroxy-3-trimethylammonio propyl-β-CD (DS = 3.5) [Compound 3]”, for which the results for the “Dose (ED50) producing 50% reversal of steady-state neuromuscular block” value (“Dose (ED50) producing 50% reversal” below) in assay [1] (setting [7]) and in assay [2] were 518 (2) μmol.kg^−1 and 1400 (1) μmol.kg^−1, respectively.

Take 2-hydroxypropyl-β-CD [Compound 10]: the “Dose (ED50) producing 50% reversal” value is on record as 33 (3) μmol.kg^−1 in assay [1] (setting [7]) and 1598 (4) μmol.kg^−1 in assay [2].

As for `O=S(=O)(O)c1cc2c(O)c(c1)Cc1cc(S(=O)(=O)O)cc(c1O)Cc1cc(S(=O)(=O)O)cc(c1O)Cc1cc(S(=O)(=O)O)cc(c1O)Cc1cc(S(=O)(=O)O)cc(c1O)Cc1cc(S(=O)(=O)O)cc(c1O)C2` [4-sulfonic calix[6]arene, 4-Sulfonic calix[6]arene], the “Dose (ED50) producing 50% reversal” value in assay [1] (setting [8]) was 5.1 µmol/kg. Moreover, in assay [3], the maximum reversal was determined as 120% and the pEC50 is 4.47.

As to `O=S(=O)(O)c1cc2c(O)c(c1)Cc1cc(S(=O)(=O)O)cc(c1O)Cc1cc(S(=O)(=O)O)cc(c1O)Cc1cc(S(=O)(=O)O)cc(c1O)Cc1cc(S(=O)(=O)O)cc(c1O)Cc1cc(S(=O)(=O)O)cc(c1O)Cc1cc(S(=O)(=O)O)cc(c1O)Cc1cc(S(=O)(=O)O)cc(c1O)C2` [4-sulfonic calix[8]arene], in assay [1] (setting [8]), the “Dose (ED50) producing 50% reversal” value turned out to be 34 µmol/kg. In addition, in assay [3], the maximum reversal is 124% and the pEC50 is 4.44.

`OC[C@H]1O[C@@H]2O[C@H]3[C@H](O)[C@@H](O)[C@@H](O[C@H]4[C@H](O)[C@@H](O)[C@@H](O[C@H]5[C@H](O)[C@@H](O)[C@@H](O[C@H]6[C@H](O)[C@@H](O)[C@@H](O[C@H]7[C@H](O)[C@@H](O)[C@@H](O[C@H]1[C@H](O)[C@H]2O)O[C@@H]7CO)O[C@@H]6CO)O[C@@H]5CO)O[C@@H]4CO)O[C@@H]3CO` [Compound 1, α-cyclodextrin]: the figures for the “Dose (ED50) producing 50% reversal” value in assay [1] (setting [7]) and in assay [2] were 1575 (2) μmol.kg^−1 and 2610 (1) μmol.kg^−1, respectively.

For the molecule `O=C(O)c1cc2ccc1OCCCCCOc1ccc(cc1C(=O)O)Cc1ccc(c(C(=O)O)c1)OCCCCCOc1ccc(cc1C(=O)O)C2` [Compound 17, 1,7,21,27-tetraoxa-9,17,29,37-tetracarboxy[7.1.7.1]paracyclophane], in assay [3], the “Mouse hemidiaphragm: maximum reversal (%)” value (“Mouse hemidiaphragm … (%)” for short) was determined as 11% and the “concentration of chemical chelator at maximum reversal” value (“concentration of chemical chelator” for short) worked out at 360 µM.

Consider `O=C(O)c1cc2ccc1OCc1ccc(cc1)COc1ccc(cc1C(=O)O)Cc1ccc(c(C(=O)O)c1)OCc1ccc(cc1)COc1ccc(cc1C(=O)O)C2` [Compound 18, 1,10,24,33-tetraoxa-12,20,35,43-tetracarboxy-[2.2.1.2.2.1]paracyclophane], for which, in assay [3], the “Mouse hemidiaphragm … (%)” value came out at 61%, the “concentration of chemical chelator” value stood at 288 µM and the “Reversal of the neuromuscular blocking action of rocuronium (in words)” value (from here on “Reversal … (in words)”) was “efficiently blocked”.

Consider `O=C(O)CC(=O)N1CCCCCN(C(=O)CC(=O)O)c2ccc(cc2)Cc2ccc(cc2)N(C(=O)CC(=O)O)CCCCCN(C(=O)CC(=O)O)c2ccc(cc2)Cc2ccc1cc2` [Compound 19, N, N′, N″, N′″-Tetrakis(carboxyacetyl)-1,7, 21, 27-tetraaza[7.1.7.1] paracyclophane], for which, in assay [3], the “Mouse hemidiaphragm … (%)” value is 2.4% and the “concentration of chemical chelator” value worked out at 108 µM.

On to `O=C(O)CCCC(=O)N1CCCCCN(C(=O)CCCC(=O)O)c2ccc(cc2)Cc2ccc(cc2)N(C(=O)CCCC(=O)O)CCCCCN(C(=O)CCCC(=O)O)c2ccc(cc2)Cc2ccc1cc2` [Compound 20, N, N′, N″, N′″-Tetrakis(4-carboxybutyryl)-1,7, 21, 27-tetraaza[7.1.7.1] paracyclophane], for which, in assay [3], the “Mouse hemidiaphragm … (%)” value is on record as 8.7% and the “concentration of chemical chelator” value turned out to be 72 µM.

`O=C(O)CCC(=O)N1CCCCCN(C(=O)CCC(=O)O)c2ccc(cc2)Cc2ccc(cc2)N(C(=O)CCC(=O)O)CCCCCN(C(=O)CCC(=O)O)c2ccc(cc2)Cc2ccc1cc2` [Compound 21, N, N′,N″, N′″-Tetrakis(3-carboxypropionyl)-1,7, 21, 27-tetraaza[7.1.7.1]para-cyclophane]: in assay [3], the “Mouse hemidiaphragm … (%)” value is 0% and the “concentration of chemical chelator” value worked out at 360 µM.

As to `O=C(O)CCC(=O)N1CC2CCC(CC2)CN(C(=O)CCC(=O)O)c2ccc(cc2)Cc2ccc(cc2)N(C(=O)CCC(=O)O)CC2CCC(CC2)CN(C(=O)CCC(=O)O)c2ccc(cc2)Cc2ccc1cc2` [Compound 23, N, N′, N″, N′″-Tetra (3-carboxypropionyl)-3,4,5,6,7,8,26,27,28,29,30,31-dodecahydro-1,10,24,33-tetraaza[2.2.1.2.2.1]paracyclophane], in assay [3], the “Mouse hemidiaphragm … (%)” value was 90%, the “concentration of chemical chelator” value came to 58 µM and the “Reversal … (in words)” value was “efficiently blocked”.

For carboxyethyl-β-CD (DS = 3) [Compound 8], the “Dose (ED50) producing 50% reversal” value in assay [1] (setting [7]) is reported as 42 (3) μmol.kg^−1; in assay [2] it was 103 (2) μmol.kg^−1; in assay [4], 479 (2) μmol.kg^−1; in assay [5], 408 (2) μmol.kg^−1; in assay [6], 412 (2) μmol.kg^−1.

As for “carboxymethyl-β-CD (DS 3–3.5) [Compound 7]”, in assay [1] (setting [7]), the “Dose (ED50) producing 50% reversal” value is reported as 139 (3) μmol.kg^−1.

As to “carboxymethyl-β-CD (DS = 3.5) [Compound 2]”, the “Dose (ED50) producing 50% reversal” value is on record as 134 (2) μmol.kg^−1 in assay [1] (setting [7]) and 800 (1) μmol.kg^−1 in assay [2].

For “cyclo[(1–4)-α-L-rhamnopyranosyl-(1–4)-α-D-mannopyranosyl]-tetraoside [Compound 24]”, in assay [3], the “Mouse hemidiaphragm … (%)” value is given as 86%, the “concentration of chemical chelator” value is 288 µM and the “Reversal … (in words)” value is reported as “efficiently blocked”. In addition, the “Reversal … (in words)” value in assay [3] (listed as cyclo-[(1–4)-α-L-rhamno-pyranosyl-(1–4)-α-D-mannopyranosyl]tetraoside) is “effective”.

Take “per 2,6-dimethyl-β-CD (DS = 12.6) [Compound 4]”: the “Dose (ED50) producing 50% reversal” value in assay [1] (setting [7]) is 70 (2) μmol.kg^−1; in assay [2] it was 1313 (4) μmol.kg^−1.

In the case of “β-cyclodextrin-phosphate sodium salt (DS = 3) [Compound 5]”, the “Dose (ED50) producing 50% reversal” value in assay [1] (setting [7]) was 280 (3) μmol.kg^−1.

With “β-cyclodextrin-phosphate sodium salt (DS = 8) [Compound 6]”, the “Dose (ED50) producing 50% reversal” value in assay [1] (setting [7]) is 120 (2) μmol.kg^−1.

As to “γ-cyclodextrin-phospate sodium salt (DS = 7) [Compound 12]”, the “Dose (ED50) producing 50% reversal” value in assay [1] (setting [7]) is 52 (2) μmol.kg^−1. Further, in assay [3], the “Mouse hemidiaphragm … (%)” value is reported as 17% and the “concentration of chemical chelator” value is 360 µM.
